Measured values taken from publication PMC9393390 (Frontiers in Pharmacology, 2022).
Where two headings read alike, the source gives them in different places.

Legend:
SARS-CoV-2-RBD (S-RBD) = molecular target: T1, SARS-CoV-2-RBD (S-RBD) (Severe acute respiratory syndrome coronavirus 2, UniProt P0DTC2); assay: Surface plasmon resonance (SPR) binding to immobilized S-RBD
T1 construct: purchased Sino Biological

hACE2 = molecular target: T2, hACE2 (Homo sapiens, UniProt Q9BYF1); assay: Surface plasmon resonance (SPR) binding to immobilized hACE2
T2 construct: purchased Sino Biological
T2 sequence (Q9BYF1 18-805): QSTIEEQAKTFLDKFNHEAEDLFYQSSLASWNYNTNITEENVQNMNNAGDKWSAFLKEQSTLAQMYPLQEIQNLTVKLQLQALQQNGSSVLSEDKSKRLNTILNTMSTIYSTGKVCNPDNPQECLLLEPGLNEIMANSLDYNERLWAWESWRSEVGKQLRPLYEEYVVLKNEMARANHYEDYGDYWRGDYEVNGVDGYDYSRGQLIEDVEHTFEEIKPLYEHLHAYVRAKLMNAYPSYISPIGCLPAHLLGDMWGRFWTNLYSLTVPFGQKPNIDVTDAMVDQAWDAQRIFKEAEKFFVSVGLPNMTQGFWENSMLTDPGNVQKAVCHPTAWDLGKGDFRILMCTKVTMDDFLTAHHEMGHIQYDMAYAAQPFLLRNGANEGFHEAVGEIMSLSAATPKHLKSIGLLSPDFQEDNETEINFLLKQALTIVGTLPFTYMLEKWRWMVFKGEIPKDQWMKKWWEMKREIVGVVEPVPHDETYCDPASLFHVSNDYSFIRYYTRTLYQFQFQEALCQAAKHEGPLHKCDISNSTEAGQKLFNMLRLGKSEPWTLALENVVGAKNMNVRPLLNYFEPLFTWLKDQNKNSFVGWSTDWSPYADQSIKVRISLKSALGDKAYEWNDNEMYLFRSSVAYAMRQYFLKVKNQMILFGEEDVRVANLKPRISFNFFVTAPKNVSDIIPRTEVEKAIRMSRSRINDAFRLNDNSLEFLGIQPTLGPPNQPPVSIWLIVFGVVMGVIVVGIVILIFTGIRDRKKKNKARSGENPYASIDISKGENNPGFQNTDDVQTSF
Method: The recombinant S-RBD (Sino Biological, Beijing, China) and hACE2 protein (Sino Biological, Beijing, China) were used for surface plasmon resonance (SPR) analysis using a Biacore 8K instrument (Biacore, Uppsala, Sweden) as previously described ([Chu et al., 2018a]; [Chu et al., 2018b]). Each target was immobilized onto flow cells in a CM5 sensor chip (GE Healthcare) via the amine-coupling method. Briefly, S-RBD was diluted in 10 mM pH 5.5 acetate to 20 µg/ml, while hACE2 was diluted in 10 mM pH 4.5 acetate to 20 µg/ml. Then the protein solutions were injected individually on the carboxyl modified sensor surface to form amine bonds. Both S-RBD and hACE2 immobilized levels were about 10,000 RU. Binding analyses were carried out at 25 °C and a flow rate of 30 μl min^−1. The retrieved drugs in a running buffer (1×PBS, 0.05% Tween 20 and 5% dimethyl sulfoxide, pH 7.4) were run over each target at gradient concentrations as indicated. An empty flow cell, without any immobilized protein, was used as a deducted reference. The binding curves were analyzed using a kinetic binding model supplied with Biacore Evaluation Software (GE Healthcare).
To evaluate the retrieved inhibitors against the S-RBD-hACE2, surface plasmon resonance (SPR) was used to determine the binding affinities of the 20 retrieved drugs to S-RBD and hACE2.
SPR analysis was performed to assess the retrieved drugs binding to hACE2 at gradient concentrations. The binding curves were analyzed using a kinetic analysis supplied with Biacore Evaluation Software. Data are presented as RU over time (s). The K D were calculated using a 1:1 binding model.

S-RBD binding to hACE2 [1] = molecular target: S-RBD binding to hACE2 (Severe acute respiratory syndrome coronavirus 2, UniProt P0DTC2); assay: Competitive inhibition ELISA (SARS-CoV-2 inhibitor screening kit); format: biochemical; details: 1 μM
S-RBD binding to hACE2 [2] = molecular target: T3, S-RBD binding to hACE2 (Homo sapiens, UniProt Q9BYF1); assay: SPR competition binding experiment (S-RBD on immobilized hACE2); details: competitive SPR, 40 nM S-RBD, 25 μM to 0.012 μM
T3 construct: purchased Sino Biological
T3 sequence (Q9BYF1 18-740): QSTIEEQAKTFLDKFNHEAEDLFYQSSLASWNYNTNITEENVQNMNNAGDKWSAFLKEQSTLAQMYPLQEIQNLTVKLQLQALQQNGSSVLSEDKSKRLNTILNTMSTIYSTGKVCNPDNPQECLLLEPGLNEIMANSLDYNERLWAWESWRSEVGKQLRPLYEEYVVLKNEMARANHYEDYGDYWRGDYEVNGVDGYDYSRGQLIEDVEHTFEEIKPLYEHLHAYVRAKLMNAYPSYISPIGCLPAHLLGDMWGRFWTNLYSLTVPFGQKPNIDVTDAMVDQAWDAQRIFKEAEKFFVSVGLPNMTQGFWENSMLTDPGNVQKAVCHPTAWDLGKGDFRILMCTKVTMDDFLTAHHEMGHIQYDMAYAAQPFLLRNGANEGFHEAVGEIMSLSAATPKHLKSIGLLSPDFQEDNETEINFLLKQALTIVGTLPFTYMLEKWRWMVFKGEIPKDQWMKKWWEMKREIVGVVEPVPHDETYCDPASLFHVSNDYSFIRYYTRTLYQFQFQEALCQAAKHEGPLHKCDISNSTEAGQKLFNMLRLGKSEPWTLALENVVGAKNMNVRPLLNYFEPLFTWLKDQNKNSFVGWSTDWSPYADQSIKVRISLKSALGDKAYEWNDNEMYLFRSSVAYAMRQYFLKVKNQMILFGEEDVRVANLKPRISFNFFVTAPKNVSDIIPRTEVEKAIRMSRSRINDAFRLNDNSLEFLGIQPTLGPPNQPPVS

[3] = SPR, 25 °C, 1:1 binding model, read-out: S-RBD K D
[4] = SPR, 25 °C, 1:1 binding model, read-out: ACE2 K D

Row | Compound | Kd (SARS-CoV-2-RBD (S-RBD)) | Kd (hACE2) | further results
1 | CC(C)=CCC[C@](C)(O[C@@H]1O[C@H](CO[C@@H]2O[C@@H](CO)[C@H](O)[C@H]2O)[C@@H](O)[C@H](O)[C@H]1O)[C@H]1CC[C@]2(C)[C@@H]1[C@H](O)C[C@@H]1[C@@]3(C)CC[C@H](O[C@@H]4O[C@H](CO)[C@@H](O)[C@H](O)[C@H]4O[C@@H]4O[C@H](CO)[C@@H](O)[C@H](O)[C@H]4O)C(C)(C)[C@@H]3CC[C@]12C [Ginsenoside Rc] | 79.8 µM | – | –
2 | Cc1ccc([C@@H]2O[C@H](CO)[C@@H](O)[C@H](O)[C@H]2O)cc1Cc1ccc(-c2ccc(F)cc2)s1 [Canagliflozin] | – | – | Kd (SARS-CoV-2-RBD (S-RBD); [3]): 23.1 µM
3 | Cc1cc(OCCCS(C)(=O)=O)cc(C)c1-c1cccc(COc2ccc3c(c2)OC[C@H]3CC(=O)O)c1 [Fasiglifam] | 42.2 µM | 10.5 µM | –
4 | C[C@@H]1[C@H](O)[C@@H](C)/C=C/C=C/CC/C=C/C=C/C=C/C=C/C(O[C@H]2O[C@H](C)[C@@H](O)[C@H](N)[C@@H]2O)CC2O[C@](O)(CC(O)C(O)CCC(O)CC(O)CC(O)CC(=O)O[C@H]1C)CC(O)C2C(=O)O (some centres unmarked) [Nystatin] | – | – | Kd (SARS-CoV-2-RBD (S-RBD); [3]): 215 µM
5 | COC(=O)C1=CC[C@@]23CC[C@@H]([C@@](C)(/C=C/C=C(\C)C(=O)O)OC2=O)[C@@]3(OC(C)=O)CC1 [Pseudolaric acid B] | – | 53.8 µM | –
6 | Aescin | – | – | Kd (hACE2; [4]): 105 µM
7 | Teichomycin | – | – | Kd (hACE2; [4]): 250 µM
8 | CCC(C)(C)C(=O)O[C@H]1C[C@@H](C)C=C2C=C[C@H](C)[C@H](CC[C@@H]3C[C@@H](O)CC(=O)O3)[C@H]21 [Simvastatin] | – | 35.8 µM | –
9 | Sodium aescinate | – | – | Kd (SARS-CoV-2-RBD (S-RBD); [3]): 16.8 µM
10 | Nc1c(Br)cc(Br)cc1CN[C@H]1CC[C@H](O)CC1 [Ambroxol] | 21.2 µM | – | –
11 | O=S(=O)(O)Oc1ccc(C(c2ccc(OS(=O)(=O)O)cc2)c2ccccn2)cc1 [Sodium Picosulfate] | 16 µM | 45.4 µM | –
12 | O=C(OCC1OC(OC(=O)c2cc(O)c(O)c(OC(=O)c3cc(O)c(O)c(O)c3)c2)C(OC(=O)c2cc(O)c(O)c(OC(=O)c3cc(O)c(O)c(O)c3)c2)C(OC(=O)c2cc(O)c(O)c(OC(=O)c3cc(O)c(O)c(O)c3)c2)C1OC(=O)c1cc(O)c(O)c(OC(=O)c2cc(O)c(O)c(O)c2)c1)c1cc(O)c(O)c(OC(=O)c2cc(O)c(O)c(O)c2)c1 (centres unmarked) [Tannic acid] | – | – | prevention of S-RBD binding to hACE2 (S-RBD binding to hACE2 [1]): prevented S-RBD from binding to hACE2; interference with binding of S-RBD to hACE2 (S-RBD binding to hACE2 [2]): interfered with the binding of the S-RBD to hACE2 in a dose-dependent manner; Kd (hACE2; read-out: ACE2 K D, SPR, 25 °C, 1:1 binding model): 8.55 µM
13 | COC(=O)C1=CO[C@@H](O[C@@H]2O[C@H](CO)[C@@H](O)[C@H](O)[C@H]2O)[C@@H]2C(CO)=CC[C@H]12 [Geniposide] | 54.9 µM | – | –
14 | CC[C@H](C)C(=O)O[C@H]1CCC=C2C=C[C@H](C)[C@H](CC[C@@H]3C[C@@H](O)CC(=O)O3)[C@H]21 [Mevastatin] | 273 µM | – | –
15 | C[C@@H]1[C@H](O)[C@@H](C)/C=C/C=C/C=C/C=C/C=C/C=C/C=C/[C@H](O[C@@H]2O[C@H](C)[C@@H](O)[C@H](N)[C@@H]2O)C[C@@H]2O[C@](O)(C[C@@H](O)C[C@@H](O)[C@H](O)CC[C@@H](O)C[C@@H](O)CC(=O)O[C@H]1C)C[C@H](O)[C@H]2C(=O)O [Amphotericin B] | 1.01 µM | 9.49 µM | –
